Molecular target: ATX (human His-tagged) (Homo sapiens (Human), UniProt Q13822)
Assay: Human ATX enzyme inhibition assay (fluorescence quenching, MR121 substrate)
Type: biochemical
Settings: 30 nM ATX, 1 μM MR121 substrate, 30° C.
Source text: Human ATX Enzyme Inhibition Assay
Assay working solutions were made as follows:

SMILES	IC50 [nM]
O=C(CCc1ccc(OC(F)(F)F)cc1)N1CCC2(CC1)CN(C(=O)C1CCc3[nH]nnc3C1)C2 (stereo not drawn) [Example 1.28, 1-(2-(4,5,6,7-tetrahydro-1H-benzo[d][1,2,3]triazole-5-carbonyl)-2,7-diazaspiro[3.5]nonan-7-yl)-3-(4-(trifluoromethoxy)phenyl)propan-1-one]	110
O=C(NCc1c[nH]nn1)N1CC2(CCN(C(=O)OCc3ccc(OC(F)(F)F)cc3)CC2)C1 [Example 14, [4-(Trifluoromethoxy)phenyl]methyl 2-((1H-triazol-4-ylmethyl)carbamoyl)-2,7-diazaspiro[3.5]nonane-7-carboxylate]	23
O=C(OCc1cccc(Cl)c1)N1CCC2(CC1)CN(C(=O)c1ccc3[nH]nnc3c1)C2 [Example 1.03, 3-chlorobenzyl 2-(1H-benzo[d][1,2,3]triazole-5-carbonyl)-2,7-diazaspiro[3.5]nonane-7-carboxylate]	201
O=C(NC1CC2(C1)CN(S(=O)(=O)c1ccc3[nH]c(=O)oc3c1)C2)OCc1cc(Cl)cc(Cl)c1 [Example 3.5, [2-(2-oxo-2,3-dihydro-benzooxazole-6-sulfonyl)-2-aza-spiro[3.3]hept-6-yl]-carbamic acid 3,5-dichloro-benzyl ester]	20
O=C(OCc1ccccc1)N1CCC2(CC1)CN(C(=O)c1ccc3[nH]nnc3c1)C2 [Example 1.01, benzyl 2-(1H-benzo[d][1,2,3]triazole-5-carbonyl)-2,7-diazaspiro[3.5]nonane-7-carboxylate]	2400
O=C(c1ccc2[nH]nnc2c1)N1CC2(CCN(c3nnc(-c4ccc(Cl)cc4)s3)CC2)C1 [Example 8, (1H-Benzo[d][1,2,3]triazol-5-yl)(7-(5-(4-chlorophenyl)-1,3,4-thiadiazol-2-yl)-2,7-diazaspiro[3.5]nonan-2-yl)methanone]	178
O=C(OCc1ccccc1)N1CCC2(CC1)CC(Nc1ccc3[nH]c(=O)oc3c1)C2 [Example 11, Benzyl 2-(2-oxo-2,3-dihydrobenzo[d]oxazol-6-ylamino)-7-azaspiro[3.5]nonane-7-carboxylate]	1290
O=C(NC1CC2(C1)CN(C(=O)OCc1cc(Cl)cc(Cl)c1)C2)c1ccc2[nH]c(=O)oc2c1 [Example 5.2, 6-[(2-oxo-2,3-dihydro-benzooxazole-6-carbonyl)-amino]-2-aza-spiro[3.3]heptane-2-carboxylic acid 3,5-dichloro-benzyl ester]	26.5
O=C(c1ccc2[nH]nnc2c1)N1CC2(CCN(c3nnc(-c4ccc(Cl)cc4)o3)CC2)C1 [Example 7.1, (1H-benzo[d][1,2,3]triazol-5-yl)(7-(5-(4-chlorophenyl)-1,3,4-oxadiazol-2-yl)-2,7-diazaspiro[3.5]nonan-2-yl)methanone]	260
O=C(NC1CC2(C1)CN(C(=O)OCc1ccccc1)C2)c1ccc2[nH]nnc2c1 [Example 1.07, 6-[(1H-benzotriazole-5-carbonyl)-amino]-2-aza-spiro[3.3]heptane-2-carboxylic acid benzyl ester]	4140
CS(=O)(=O)c1cc(Cl)ccc1COC(=O)N1CCC2(CC1)CN(C(=O)c1ccc3[nH]nnc3c1)C2 [Example 12.27, 4-chloro-2-(methylsulfonyl)benzyl 2-(1H-benzo[d][1,2,3]triazole-5-carbonyl)-2,7-diazaspiro[3.5]nonane-7-carboxylate]	140
O=C(OCc1cc(Cl)cc(C(F)(F)F)c1)N1CCC2(CC1)CN(C(=O)c1ccc3[nH]nnc3c1)C2 [Example 12.44, 3-chloro-5-(trifluoromethyl)benzyl 2-(1H-benzo[d][1,2,3]triazole-5-carbonyl)-2,7-diazaspiro[3.5]nonane-7-carboxylate]	8
NS(=O)(=O)c1ccc(C(=O)N2CC3(CCN(C(=O)OCc4ccc(OC(F)(F)F)cc4)CC3)C2)cc1 [Example 1.22, 4-(trifluoromethoxy)benzyl 2-(4-sulfamoylbenzoyl)-2,7-diazaspiro[3.5]nonane-7-carboxylate]	15
CC(OC(=O)N1CCC2(CC1)CN(C(=O)c1ccc3[nH]nnc3c1)C2)c1cc(Cl)cc(Cl)c1 (stereo not drawn) [Example 12.07, 1-(3,5-dichlorophenyl)ethyl 2-(1H-benzo[d][1,2,3]triazole-5-carbonyl)-2,7-diazaspiro[3.5]nonane-7-carboxylate]	378
O=C(CCc1cc(Cl)cc(Cl)c1)N1CCC2(CC1)CN(C(=O)c1ccc3[nH]c(=O)oc3c1)C2 [Example 5.1, 6-(7-(3-(3,5-dichlorophenyl)propanoyl)-2,7-diazaspiro[3.5]nonane-2-carbonyl)benzo[d]oxazol-2(3H)-one]	61
CS(=O)(=O)c1cc(COC(=O)N2CCC3(CC2)CN(S(=O)(=O)c2ccc4[nH]c(=O)oc4c2)C3)cc(C(F)(F)F)c1 [Example 12.45, 3-(methylsulfonyl)-5-(trifluoromethyl)benzyl 2-(2-oxo-2,3-dihydrobenzo[d]oxazol-6-ylsulfonyl)-2,7-diazaspiro[3.5]nonane-7-carboxylate]	39
O=C(/C=C/c1cc(Cl)cc(Cl)c1)N1CCC2(CC1)CN(C(=O)c1ccc3[nH]nnc3c1)C2 [Example 6, (E)-1-(2-(1H-benzo[d][1,2,3]triazole-5-carbonyl)-2,7-diazaspiro[3.5]nonan-7-yl)-3-(3,5-dichlorophenyl)prop-2-en-1-one]	26

SMILES	IC50 [nM]
O=C(OCc1cc(Cl)cc(Cl)c1)N1CCC2(CCN(C(=O)c3ccc4[nH]nnc4c3)CC2)C1 [Example 1.19, 3,5-dichlorobenzyl 8-(1H-benzo[d][1,2,3]triazole-5-carbonyl)-2,8-diazaspiro[4.5]decane-2-carboxylate]	39.5
O=C(OCc1ccc(Cl)c(Cl)c1)N1CCC2(CC1)CN(C(=O)c1ccc3[nH]nnc3c1)C2 [Example 12.02, 3,4-dichlorobenzyl 2-(1H-benzo[d][1,2,3]triazole-5-carbonyl)-2,7-diazaspiro[3.5]nonane-7-carboxylate]	44
CC(C)c1cc(Cl)ccc1OCC(=O)N1CCC2(CC1)CN(C(=O)c1ccc3[nH]nnc3c1)C2 [Example 1.26, 1-(2-(1H-benzo[d][1,2,3]triazole-5-carbonyl)-2,7-diazaspiro[3.5]nonan-7-yl)-2-(4-chloro-2-isopropylphenoxy)ethanone]	8
O=C(OCc1cc(Cl)cc(Cl)c1)N1CCC2(CC1)CN(Cc1ccc3[nH]c(=O)oc3c1)C2 [Example 4, 3,5-Dichlorobenzyl 2-((2-oxo-2,3-dihydro-benzo[d]oxazol-6-yl)methyl)-2,7-diaza-spiro[3.5]nonane-7-carboxylate]	546
O=C(OCc1cc(Cl)cc(Cl)c1)N1CCC2(CC1)CN(S(=O)(=O)c1ccc3[nH]c(=O)oc3c1)C2 [Example 3, 3,5-Dichlorobenzyl 2-(2-oxo-2,3-dihydro-benzo[d]oxazol-6-ylsulfonyl)-2,7-diazaspiro[3.5]nonane-7-carboxylate]	6
O=C(OCc1ccccc1)N1CC2(CC(NS(=O)(=O)c3ccc4[nH]c(=O)oc4c3)C2)C1 [Example 3.2, benzyl 6-(2-oxo-2,3-dihydrobenzo[d]oxazole-6-sulfonamido)-2-azaspiro[3.3]heptane-2-carboxylate]	298
O=C(NC1CC2(C1)CC(C(=O)Nc1ccc3[nH]nnc3c1)C2)OCc1cc(Cl)cc(Cl)c1 (stereo not drawn) [Example 12.29, 3,5-dichlorobenzyl 6-(1H-benzo[d][1,2,3]triazol-5-ylcarbamoyl)spiro[3.3]heptan-2-ylcarbamate]	68.5
O=C(CCCc1ccccc1)N1CC2(CC(NS(=O)(=O)c3ccc4[nH]c(=O)oc4c3)C2)C1 [Example 3.1, 2-oxo-2,3-dihydro-benzooxazole-6-sulfonic acid [2-(4-phenyl-butyryl)-2-aza-spiro[3.3]hept-6-yl]-amide]	3560
O=C(OCc1cc(Cl)cc(Cl)c1)N1CC2(CC(NS(=O)(=O)c3ccc4[nH]c(=O)oc4c3)C2)C1 [Example 3.4, 3,5-dichlorobenzyl 6-(2-oxo-2,3-dihydrobenzo[d]oxazole-6-sulfonamido)-2-azaspiro[3.3]heptane-2-carboxylate]	19.5
O=C(OCc1cc(Cl)nc(Cl)c1)N1CCC2(CC1)CN(C(=O)c1ccc3[nH]nnc3c1)C2 [Example 12.01, (2,6-dichloropyridin-4-yl)methyl 2-(1H-benzo[d][1,2,3]triazole-5-carbonyl)-2,7-diazaspiro[3.5]nonane-7-carboxylate]	150
O=C(OCc1ccc(C(F)(F)F)cc1F)N1CCC2(CC1)CN(C(=O)[C@@H]1CCc3[nH]nnc3C1)C2 [Example 16B, (R)-[2-fluoro-4-(trifluoromethyl)phenyl]methyl 2-[4,5,6,7-tetrahydro-1H-benzotriazole-5-carbonyl]-2,7-diazaspiro[3.5]nonane-7-carboxylate]	9
O=C(OCc1ccc(OC(F)(F)F)c(F)c1)N1CC2(CCN(C(=O)C3CCc4[nH]nnc4C3)CC2)C1 (stereo not drawn) [Example 12.33, 3-fluoro-4-(trifluoromethoxy)benzyl 7-(4,5,6,7-tetrahydro-1H-benzo[d][1,2,3]triazole-5-carbonyl)-2,7-diazaspiro[3.5]nonane-2-carboxylate]	13
O=C(NC1CC2(C1)CN(C(=O)OCc1ccc(F)c(Cl)c1)C2)c1ccc2[nH]nnc2c1 [Example 12.21, 6-[(1H-benzotriazole-5-carbonyl)-amino]-2-aza-spiro[3.3]heptane-2-carboxylic acid 3-chloro-4-fluoro-benzyl ester]	1250
CS(=O)(=O)c1cc(Cl)cc(COC(=O)N2CCC3(CC2)CN(C(=O)c2ccc4[nH]c(=O)oc4c2)C3)c1 [Example 2.1, 3-chloro-5-(methylsulfonyl)benzyl 2-(2-oxo-2,3-dihydrobenzo[d]oxazole-6-carbonyl)-2,7-diazaspiro[3.5]nonane-7-carboxylate]	38
O=C(OCc1cc(Cl)cc(Cl)c1)N1CCC2(CCN(C(=O)c3ccc4[nH]nnc4c3)C2)C1 (stereo not drawn) [Example 12.16, 3,5-dichlorobenzyl 7-(1H-benzo[d][1,2,3]triazole-5-carbonyl)-2,7-diazaspiro[4.4]nonane-2-carboxylate]	457
O=C(NCc1cnn[nH]1)C1CC2(CCN(C(=O)/C=C/c3ccc(OC(F)(F)F)cc3)CC2)C1 [Example 6.8, (E)-N-((1H-1,2,3-triazol-5-yl)methyl)-7-(3-(4-(trifluoromethoxy)phenyl)acryloyl)-7-azaspiro[3.5]nonane-2-carboxamide]	91

— patent US9493486B2, “Diazaspirocycloalkane and azaspirocycloalkane” (Hoffmann-La Roche Inc., priority 2012, dated 2016)
